# Marks after values point to notes of the source that are not given here.
# What was measured:
# [1] = tested on: Male salt-sensitive Dahl rats; assay: Blood pressure (systolic and diastolic) and heart rate by telemetry in hypertensive Dahl rats; format: in vivo, rat; settings: for Diastolic blood pressure measured by telemetry, Mean / Heart rate measured by telemetry, Mean / Systolic blood pressure measured by telemetry, Mean: 24 hour average
# Description: Direct blood pressure (systolic and diastolic) and heart rate was also measured by telemetry (Tables F—H and FIG. 4). Data in Tables F—H and depicted in FIGS. 4A-4C are 24 hour averages for the last 4 days before the start of the daily oral gavage of treatments (−4, −3, −2, −1) and for the days 1-17 during the treatments shown.
# [2] = tested on: Male salt-sensitive Dahl rats; assay: Fasting free fatty acids (FFA) and adiponectin in treated Dahl rats; format: in vivo, rat; settings: 3 weeks treatment; 40 mg/kg compound 1, 20 mg/kg rosiglitazone
# Description: Doses of these compounds were chosen to produce the same metabolic effects in terms of reduction of triglycerides and elevation of adiponectin (Table E). Direct blood pressure (systolic and diastolic) and heart rate was also measured by telemetry (Tables F—H and FIG. 4).
# [3] = biological target: T1, PPARγ (Homo sapiens, UniProt P37231); assay: commercial PPARγ binding assay (Invitrogen; PPAR-LBD/Fluormone PPAR Green complex); settings: for Binding to PPARγ (Fluormone displacement signal): mean of three experiments
# T1 construct: purchased Invitrogen Corporation, Carlsbad, Calif
# T1 sequence (P37231 238-503 limits assumed): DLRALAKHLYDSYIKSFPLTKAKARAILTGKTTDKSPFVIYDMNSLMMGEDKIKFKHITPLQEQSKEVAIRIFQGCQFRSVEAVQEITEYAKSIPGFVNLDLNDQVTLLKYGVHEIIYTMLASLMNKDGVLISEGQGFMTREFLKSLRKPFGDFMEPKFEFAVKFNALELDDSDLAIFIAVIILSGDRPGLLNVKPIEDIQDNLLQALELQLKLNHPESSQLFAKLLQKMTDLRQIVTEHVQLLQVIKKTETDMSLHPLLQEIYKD
# Description: The ability of several exemplary compounds of the present invention, shown in Table A, to bind to PPARγ was measured using a commercial binding assay (Invitrogen Corporation, Carlsbad, Calif.) that measures the test compounds ability to bind with PPAR-LBD/Fluormone PPAR Green complex. These assays were performed on three occasions with each assay using four separate wells (quadruplicate) at each concentration of tested compound. The data are mean and SEM of the values obtained from the three experiments. […] Compounds were added at the concentrations shown, which range from 0.1-100 micromolar.
# [4] = tested on: male Sprague-Dawley rats; assay: Prevention of Medrol-induced hypertension, mean blood pressure by direct femoral arterial cannulation; format: in vivo, rat; settings: hypertension generated by treatment with a glucocorticoid
# Description: Hypertension was induced in normal male Sprague-Dawley rats by daily dosing with the glucocorticoid methylprednisolone (Medrol) for 8 days. Separate groups of rats received the vehicle (1% carboxymethylcellulose/0.01% Tween 20) by oral gavage and some of both the vehicle-treated and Medrol-treated rats also received daily doses of compound 1 as shown in Table D below. Mean blood pressure was measured by direct femoral arterial cannulation under fed conditions on day 7 and after a 6 hour fast on day 8. The data are mean and (SEM) mean blood pressure obtained by direct cannulation. N=9; * p<0.05 less than blood pressure in Medrol-treated rats.
# [5] = tested on: Male Dahl salt-sensitive rats; assay: Antihypertensive action in hypertensive Dahl salt-sensitive rats (high salt diet), mean blood pressure by direct femoral arterial cannulation; format: in vivo, rat
# Description: Male Dahl salt-sensitive rats were made hypertensive by feeding of a high salt diet (4% salt) for 3 weeks and then treated daily with the indicated dose of hydrochlorothiazide (HCTZ), compound 1, or the combination of HCTZ and compound 1, as compared to the vehicle alone (1% carboxymethylcellulose/0.01% Tween 20) by oral gavage for 8 days. Mean blood pressure was measured by direct femoral arterial cannulation under fed conditions on day 7 and after a 6 hour fast on day 8.
# Referring to FIG. 2 and Table C above, the antihypertensive action of compound 1 is additive with hydrocholothiazide (HCTZ). Data are mean and (SEM) mean blood pressure taken by direct cannulation. N=5; * p<0.05 less than blood pressure in HCTZ-treated rats.
# [6] = day 1 of treatment, rosiglitazone 20 mg/kg, compound 1 40 mg/kg
# [7] = day 2 of treatment, rosiglitazone 20 mg/kg, compound 1 40 mg/kg
# [8] = day 3 of treatment, rosiglitazone 20 mg/kg, compound 1 40 mg/kg
# [9] = day 4 of treatment, rosiglitazone 20 mg/kg, compound 1 40 mg/kg
# [10] = day 5 of treatment, rosiglitazone 20 mg/kg, compound 1 40 mg/kg
# [11] = day 6 of treatment, rosiglitazone 20 mg/kg, compound 1 40 mg/kg
# [12] = day 7 of treatment, rosiglitazone 20 mg/kg, compound 1 40 mg/kg
# [13] = day 8 of treatment, rosiglitazone 20 mg/kg, compound 1 40 mg/kg
# [14] = day 9 of treatment, rosiglitazone 20 mg/kg, compound 1 40 mg/kg
# [15] = day 10 of treatment, rosiglitazone 20 mg/kg, compound 1 40 mg/kg
# [16] = day 11 of treatment, rosiglitazone 20 mg/kg, compound 1 40 mg/kg
# [17] = day 12 of treatment, rosiglitazone 20 mg/kg, compound 1 40 mg/kg
# [18] = day 13 of treatment, rosiglitazone 20 mg/kg, compound 1 40 mg/kg
# [19] = day 14 of treatment, rosiglitazone 20 mg/kg, compound 1 40 mg/kg
# [20] = day 15 of treatment, rosiglitazone 20 mg/kg, compound 1 40 mg/kg
# [21] = day 16 of treatment, rosiglitazone 20 mg/kg, compound 1 40 mg/kg
# [22] = day 17 of treatment, rosiglitazone 20 mg/kg, compound 1 40 mg/kg
# [23] = day −1, before start of treatment
# [24] = day −2, before start of treatment
# [25] = day −3, before start of treatment
# [26] = day −4, before start of treatment
structure (smiles),measurement,setting,value
CCc1ccc(C(=O)COc2ccc(CC3SC(=O)NC3=O)cc2)nc1 (centres unmarked) [Compound 1],"Diastolic blood pressure measured by telemetry, Mean",[1]; [6],119
same,"Heart rate measured by telemetry, Mean",[1]; [6],420 bpm
same,"Systolic blood pressure measured by telemetry, Mean",[1]; [6],167
same,"Diastolic blood pressure measured by telemetry, Mean",[1]; [7],117
same,"Heart rate measured by telemetry, Mean",[1]; [7],414 bpm
same,"Systolic blood pressure measured by telemetry, Mean",[1]; [7],167
same,"Diastolic blood pressure measured by telemetry, Mean",[1]; [8],120
same,"Heart rate measured by telemetry, Mean",[1]; [8],406 bpm
same,"Systolic blood pressure measured by telemetry, Mean",[1]; [8],171
same,"Diastolic blood pressure measured by telemetry, Mean",[1]; [9],119
same,"Heart rate measured by telemetry, Mean",[1]; [9],405 bpm
same,"Systolic blood pressure measured by telemetry, Mean",[1]; [9],170
same,"Diastolic blood pressure measured by telemetry, Mean",[1]; [10],122
same,"Heart rate measured by telemetry, Mean",[1]; [10],400 bpm
same,"Systolic blood pressure measured by telemetry, Mean",[1]; [10],173
same,"Diastolic blood pressure measured by telemetry, Mean",[1]; [11],121
same,"Heart rate measured by telemetry, Mean",[1]; [11],395 bpm
same,"Systolic blood pressure measured by telemetry, Mean",[1]; [11],173
same,"Diastolic blood pressure measured by telemetry, Mean",[1]; [12],125
same,"Heart rate measured by telemetry, Mean",[1]; [12],389 bpm
same,"Systolic blood pressure measured by telemetry, Mean",[1]; [12],176
same,"Diastolic blood pressure measured by telemetry, Mean",[1]; [13],128
same,"Heart rate measured by telemetry, Mean",[1]; [13],394 bpm
same,"Systolic blood pressure measured by telemetry, Mean",[1]; [13],180
same,"Diastolic blood pressure measured by telemetry, Mean",[1]; [14],129
same,"Heart rate measured by telemetry, Mean",[1]; [14],388 bpm
same,"Systolic blood pressure measured by telemetry, Mean",[1]; [14],182
same,"Diastolic blood pressure measured by telemetry, Mean",[1]; [15],132
same,"Heart rate measured by telemetry, Mean",[1]; [15],389 bpm
same,"Systolic blood pressure measured by telemetry, Mean",[1]; [15],185
same,"Diastolic blood pressure measured by telemetry, Mean",[1]; [16],132
same,"Heart rate measured by telemetry, Mean",[1]; [16],389 bpm
same,"Systolic blood pressure measured by telemetry, Mean",[1]; [16],184
same,"Diastolic blood pressure measured by telemetry, Mean",[1]; [17],132
same,"Heart rate measured by telemetry, Mean",[1]; [17],391 bpm
same,"Systolic blood pressure measured by telemetry, Mean",[1]; [17],187
same,"Diastolic blood pressure measured by telemetry, Mean",[1]; [18],135
same,"Heart rate measured by telemetry, Mean",[1]; [18],388 bpm
same,"Systolic blood pressure measured by telemetry, Mean",[1]; [18],189
same,"Diastolic blood pressure measured by telemetry, Mean",[1]; [19],135
same,"Heart rate measured by telemetry, Mean",[1]; [19],385 bpm
same,"Systolic blood pressure measured by telemetry, Mean",[1]; [19],192
same,"Diastolic blood pressure measured by telemetry, Mean",[1]; [20],137
same,"Heart rate measured by telemetry, Mean",[1]; [20],390 bpm
same,"Systolic blood pressure measured by telemetry, Mean",[1]; [20],193
same,"Diastolic blood pressure measured by telemetry, Mean",[1]; [21],138
same,"Heart rate measured by telemetry, Mean",[1]; [21],389 bpm
same,"Systolic blood pressure measured by telemetry, Mean",[1]; [21],197
same,"Diastolic blood pressure measured by telemetry, Mean",[1]; [22],141
same,"Heart rate measured by telemetry, Mean",[1]; [22],388 bpm
same,"Systolic blood pressure measured by telemetry, Mean",[1]; [22],195
same,"Diastolic blood pressure measured by telemetry, Mean",[1]; [23],125
same,"Heart rate measured by telemetry, Mean",[1]; [23],393 bpm
same,"Systolic blood pressure measured by telemetry, Mean",[1]; [23],173
same,"Diastolic blood pressure measured by telemetry, Mean",[1]; [24],127
same,"Heart rate measured by telemetry, Mean",[1]; [24],398 bpm
same,"Systolic blood pressure measured by telemetry, Mean",[1]; [24],175
same,"Diastolic blood pressure measured by telemetry, Mean",[1]; [25],123
same,"Heart rate measured by telemetry, Mean",[1]; [25],400 bpm
same,"Systolic blood pressure measured by telemetry, Mean",[1]; [25],170
same,"Diastolic blood pressure measured by telemetry, Mean",[1]; [26],124
same,"Heart rate measured by telemetry, Mean",[1]; [26],406 bpm
same,"Systolic blood pressure measured by telemetry, Mean",[1]; [26],171
same,effect on heart rate (in words),"[1]; telemetry, Tables F-H",reducing heart rate
same,reduction of blood pressure compared with rosiglitazone (in words),"[1]; telemetry, Tables F-H",more effective in reducing blood pressure
same,Adiponectin,[2],36*
same,FFA,[2],0.70*
same,Binding to PPARγ (Fluormone displacement signal),[3]; 1 μM compound,223
same,Binding to PPARγ (Fluormone displacement signal),[3]; 3 μM compound,228
same,Binding to PPARγ (Fluormone displacement signal),[3]; 10 μM compound,207
same,Binding to PPARγ (Fluormone displacement signal),[3]; 50 μM compound,174
same,Binding to PPARγ (Fluormone displacement signal),[3]; 100 μM compound,170
same,Binding to PPARγ (Fluormone displacement signal),[3]; .1 μM compound,227
same,Binding to PPARγ (Fluormone displacement signal),[3]; .3 μM compound,232
same,binding to PPARγ (in words),[3]; FIG. 1 and Table B,particularly poor binders
same,blood pressure lowering (in words),[4],significantly lowered blood pressure
same,"Mean blood pressure, Fasted","[5]; 6 hour fast, day 8, oral gavage daily, Compound 1 40 mg/kg/day, HCTZ 5 mg/kg/day",151
same,antihypertensive action in combination with HCTZ (in words),[5]; FIG. 2 and Table C,additive
same,"Mean blood pressure, Fed","[5]; fed, day 7, oral gavage daily, Compound 1 40 mg/kg/day, HCTZ 5 mg/kg/day",167
same,blood pressure lowering (in words),[5]; hypertensive Dahl salt-sensitive rats,significantly lower blood pressure
